Publication PMC7413308 (ARKIVOC : free online journal of organic chemistry, 2018)
“And” between values parts separate entries of the source, which are not always exact repeats. Identical values can stand only once.

Key:
[1] = In vitro microsomal stability of analogs; format: in vitro ADME, mouse; conditions: for half-life / remaining at 2 h / remaining at 1 h: mouse, liver microsomes; for remaining at 2 h / remaining at 1 h: Microsomal stability (MLM) % remaining; for remaining at 2 h: after 2 hr
[2] = system: HEK293 (kidney) cell line; experiment: In vitro cytotoxicity, cell viability; format: cell-based; conditions: 48 h incubation, Cell-Titer Glo cell viability
[3] = In vitro microsomal stability of analogs; format: in vitro ADME, human; conditions: for half-life / remaining at 1 h / remaining at 2 h: human, liver microsomes; for remaining at 1 h / remaining at 2 h: Microsomal stability (HLM) % remaining; for remaining at 1 h: footnote d: assessed at 1-hour incubation time; for remaining at 2 h: after 2 hr
HEPG2 (liver) cell line = experiment: In vitro cytotoxicity, cell viability; format: cell-based; conditions: 48 h incubation, Cell-Titer Glo cell viability
[4] = footnote d: assessed at 1-hour incubation time
[5] = footnote a: compound not detected after 10 minutes

| SMILES | half-life [1] | remaining at 2 h [1] | HEK293 LD50 [2] | half-life [3] | remaining at 1 h [3] | remaining at 1 h [1, 4] | HEPG2 LD50 (HEPG2 (liver) cell line) | Microsomal stability (MLM) % remaining [1, 4] | Microsomal stability (MLM) Half-life [1, 4] | % remaining in HLM ([3]; after 10, 20, and 30 minutes in HLM) | Microsomal stability (HLM) % remaining [3, 5] | Microsomal stability (HLM) Half-life [3, 5] | remaining at 2 h [3] |
| --- | --- | --- | --- | --- | --- | --- | --- | --- | --- | --- | --- | --- | --- |
| COC(=O)c1ncn2c1[C@H](C)N=C(c1ccccc1F)c1cc(Br)ccc1-2 [4a, (S)-Methyl-8-bromo-6-(2-fluorophenyl)-4-methyl-4H-benzo[f]imidazo[1,5-a][1,4]diazepine-3-carboxylate] | 1.93 ± 0.217 h | 41 ± 0.6% | 98.5 ± 7.9 µM | 0.167 ± 0.0167 h | 2 ± 0.3% | – | – | – | – | – | – | – | – |
| C#Cc1ccc2c(c1)C(c1ccccc1F)=N[C@@H](C)c1c(C(=O)OC)ncn1-2 [5a, (S)-Methyl-8-ethynyl-6-(2-fluorophenyl)-4-methyl-4H-benzo[f]imidazo[1,5-a][1,4]diazepine-3-carboxylate] | 3.6 ± 0.467 h | 62 ± 0.5% | 68.2 ± 4.3 µM | 1.98 ± 0.35 h | 43 ± 0.4% | – | – | – | – | – | – | – | – |
| C#Cc1ccc2c(c1)C(c1ccccc1F)=N[C@@H](C)c1c(C(=O)OCCC)ncn1-2 [5b, (S)-Propyl-8-ethynyl-6-(2-fluorophenyl)-4-methyl-4H-benzo[f]imidazo[1,5-a][1,4]diazepine-3-carboxylate] | 0.4 h | – | 53.2 ± 4.4 µM | < 0.0833 h | – | 12 ± 0.2% | 56.3 ± 4.0 µM | – | – | – | – | – | – |
| C#Cc1ccc2c(c1)C(c1ccccc1F)=N[C@@H](C)c1c(C(=O)OC(C)C)ncn1-2 [5c, (S)-Isopropyl-8-ethynyl-6-(2-fluorophenyl)-4-methyl-4H-benzo[f]imidazo[1,5-a][1,4]diazepine-3-carboxylate] | 3.78 ± 0.267 h | – | 48.9 ± 4.4 µM | 0.95 ± 0.0333 h | 47 ± 0.2% | 83 ± 0.1% | 39.9 ± 2.8 µM | – | – | – | – | – | – |
| C#Cc1ccc2c(c1)C(c1ccccc1F)=N[C@@H](C)c1c(C(=O)OC(C)(C)C)ncn1-2 [5d, (S)-tert-Butyl-8-ethynyl-6-(2-fluorophenyl)-4-methyl-4H-benzo[f]imidazo[1,5-a][1,4]diazepine-3-carboxylate] | 3.27 ± 0.333 h | – | – | 8.57 ± 1.92 h | 89 ± 0.2% | 78 ± 0.2% | 21.4 ± 1.9 µM | – | – | – | – | – | – |
| C#Cc1ccc2c(c1)C(c1ccccc1F)=N[C@@H](C)c1c(C(=O)OC(C)(C)CC)ncn1-2 [5e, (S)-tert-Pentyl-8-ethynyl-6-(2-fluorophenyl)-4-methyl-4H-benzo[f]imidazo[1,5-a][1,4]diazepine-3-carboxylate] | – | – | 17.2 ± 1.6 µM | – | – | – | 17.1 ± 1.4 µM | – | – | – | – | – | – |
| C#Cc1ccc2c(c1)C(c1ccccc1F)=N[C@@H](C)c1c(C(=O)OCC(F)(F)F)ncn1-2 [5f, (S)-2,2,2-Trifluoroethyl-8-ethynyl-6-(2-fluorophenyl)-4-methyl-4H-benzo[f]imidazo[1,5-a][1,4]diazepine-3-carboxylate] | < 0.0833 h | – | 138 µM and 138.1 ± 31.8 µM | < 0.0833 h | – | – | >400 µM | – | – | – | – | – | – |
| C#Cc1ccc2c(c1)C(c1ccccc1F)=N[C@@H](C)c1c(C(=O)OC3CC3)ncn1-2 [5g, (S)-Cyclopropyl-8-ethynyl-6-(2-fluorophenyl)-4-methyl-4H-benzo[f]imidazo[1,5-a][1,4]diazepine-3-carboxyl-ate] | – | – | 35.8 ± 3.3 µM | – | – | – | 85.1 ± 3.8 µM | 11.0 ± 0.2^d % | 19 ± 2^d min | less than 5% | < 5.0^a % | < 5^a min | – |
| C#Cc1ccc2c(c1)C(c1ccccc1F)=N[C@@H](C)c1c(C(=O)NC)ncn1-2 [8a, (S)-8-Ethynyl-6-(2-fluorophenyl)-N,4-dimethyl-4H-benzo[f]imidazo[1,5-a][1,4]diazepine-3-carboxamide] | – | 86 ± 0.2% | – | – | – | – | – | – | – | – | – | – | 92 ± 0.3% |
| C#Cc1ccc2c(c1)C(c1ccccc1F)=N[C@@H](C)c1c(C(=O)NCC)ncn1-2 [8b, (S)-N-Ethyl-8-ethynyl-6-(2-fluorophenyl)-4-methyl-4H-benzo[f]imidazo[1,5-a][1,4]diazepine-3-carboxamide] | 32.7 ± 0.767 h | > 92% | 95.5 ± 12.6 µM | 33 ± 0.833 h | – | – | 65.4 ± 7.3 µM | – | – | – | – | – | > 92% |
